For 13 molecules, IC50 results are on record in ChEMBL document CHEMBL1126489, “N1-sterically hindered 2H-imidazol-2-one angiotensin II receptor antagonists: The conversion of surmountable antagonists to insurmountable antagonists” (Bioorg Med Chem Lett, 1993).

This assay deals with T1, Angiotensin II receptor (Rattus norvegicus, UniProt P29089+P25095+P35351).
T1 sequence (P29089 whole entry): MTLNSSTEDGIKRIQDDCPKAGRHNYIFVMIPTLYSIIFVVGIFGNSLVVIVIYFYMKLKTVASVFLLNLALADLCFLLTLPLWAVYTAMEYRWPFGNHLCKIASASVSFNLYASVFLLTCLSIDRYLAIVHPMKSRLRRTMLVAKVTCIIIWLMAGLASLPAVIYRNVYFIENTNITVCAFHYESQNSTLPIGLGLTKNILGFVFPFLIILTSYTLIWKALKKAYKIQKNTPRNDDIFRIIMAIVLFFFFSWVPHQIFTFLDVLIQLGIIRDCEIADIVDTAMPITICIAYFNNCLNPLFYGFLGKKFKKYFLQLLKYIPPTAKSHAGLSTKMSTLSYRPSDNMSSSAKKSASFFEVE
T1 sequence (P25095 whole entry): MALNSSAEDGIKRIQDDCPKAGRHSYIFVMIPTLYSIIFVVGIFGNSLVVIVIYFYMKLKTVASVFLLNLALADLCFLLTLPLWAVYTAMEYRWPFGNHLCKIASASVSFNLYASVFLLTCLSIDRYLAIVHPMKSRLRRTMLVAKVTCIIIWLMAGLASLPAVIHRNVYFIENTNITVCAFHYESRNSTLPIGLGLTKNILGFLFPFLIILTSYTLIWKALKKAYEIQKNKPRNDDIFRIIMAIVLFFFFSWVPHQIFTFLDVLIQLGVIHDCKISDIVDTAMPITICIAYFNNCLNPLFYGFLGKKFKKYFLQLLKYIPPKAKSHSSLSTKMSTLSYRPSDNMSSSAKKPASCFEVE
T1 sequence (P35351 whole entry): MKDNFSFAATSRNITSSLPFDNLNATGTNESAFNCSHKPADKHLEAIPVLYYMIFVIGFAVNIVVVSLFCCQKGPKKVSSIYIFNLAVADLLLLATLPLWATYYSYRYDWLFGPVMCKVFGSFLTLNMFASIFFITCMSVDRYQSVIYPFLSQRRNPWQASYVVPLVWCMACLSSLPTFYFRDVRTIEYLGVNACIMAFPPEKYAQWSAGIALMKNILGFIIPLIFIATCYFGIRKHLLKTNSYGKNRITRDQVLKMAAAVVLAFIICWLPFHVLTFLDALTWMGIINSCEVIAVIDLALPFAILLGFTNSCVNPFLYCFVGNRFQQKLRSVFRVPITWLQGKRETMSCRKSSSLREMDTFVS
Kind of assay: Inhibition of [125I]-AII binding to Angiotensin II receptor of rat uterine membrane.
As a reminder, the IC50 is the concentration needed to halve the response being measured. Low values mean greater potency in that assay, high ones weaker potency in that assay. Regarding `CCCCc1cn(-c2c(C(C)C)cccc2C(C)C)c(=O)n1Cc1ccc(-c2ccccc2-c2nn[nH]n2)nc1`, the IC50 was determined as 34 nM.
With `CCCCc1cn(-c2ccccc2C(C)C)c(=O)n1Cc1ccc(-c2ccccc2-c2nn[nH]n2)nc1` the figure was 14 nM; with `CCCCc1cn(-c2c(C)cccc2C)c(=O)n1Cc1ccc(-c2ccccc2-c2nn[nH]n2)nc1`, 5 nM.
Molecule `CCCCc1cn(-c2ccccc2)c(=O)n1Cc1ccc(-c2ccccc2-c2nn[nH]n2)nc1` registered an IC50 of 45 nM.
Molecule `CCCCC1=NC2(CCCC2)C(=O)N1Cc1ccc(-c2ccccc2-c2nnn[nH]2)cc1` [IRBESARTAN] gave an IC50 of 1.3 nM.
Then `CCCCc1cn(-c2ccccc2C(C)(C)C)c(=O)n1Cc1ccc(-c2ccccc2-c2nn[nH]n2)nc1`, with 19 nM; and `CCCCc1cn([C@H]2[C@H](C)CCC[C@@H]2C)c(=O)n1Cc1ccc(-c2ccccc2-c2nn[nH]n2)nc1` [SC-55634], with 4.9 nM; and `CCCCc1cn(CCCC)c(=O)n1Cc1ccc(-c2ccccc2-c2nn[nH]n2)cc1` [SC-51895], with 12 nM.
For the molecule `CCCCc1cn(-c2ccccc2CC)c(=O)n1Cc1ccc(-c2ccccc2-c2nn[nH]n2)nc1`, the IC50 stood at 4.5 nM.
On to `CCCCc1cn(-c2ccccc2C)c(=O)n1Cc1ccc(-c2ccccc2-c2nn[nH]n2)nc1`, for which the IC50 worked out at 9.4 nM.
Then `CCCCc1cn(CCCC)c(=O)n1Cc1ccc(-c2ccccc2-c2nn[nH]n2)nc1` [SC-52892], with 6.5 nM; and `CCCCc1cn(-c2c(CC)cccc2CC)c(=O)n1Cc1ccc(-c2ccccc2-c2nn[nH]n2)nc1`, with 5 nM; and `CCCCc1nc(CCCC)n(Cc2ccc(-c3ccccc3-c3nn[nH]n3)cc2)n1`, with 5.6 nM.
